Test system: WSU-DLCL2 lymphoma cells
Experimental: The tumor cell line was routinely cultured in DMEM containing 10% FCS (Gibco) at 37° C. in a water-saturated atmosphere at 5% CO2. Passage 15 was used for transplantation in human CD16 transgenic Scid mice. […] Expression of CD20 and CD22 was confirmed on WSU-DLCL2 lymphoma cells by FACS. […] Mean fluorescence was measured using the plate protocol in the FACS CantoII (Software FACS Diva).
60 SCID FcgR3 transgenic female mice (SCID CD16 tg mice), age 7-8 weeks at start of experiment (purchased from Charles River), were maintained under specific-pathogen-free condition with daily cycles of 12 h light/12 h darkness according to committed guidelines (GV-Solas; Felasa; TierschG). […] After arrival animals were maintained for one week to get accustomed to new environment and for observation. Continuous health monitoring was carried out on regular basis.
Animals were randomized for CD16 Expression on murine NK cells with an average of 70%. Treatment started 12 days after cell transplantation. […] The CD22-ADC was given once on study day 12 at the dose of 4 mg/kg. The antibody dilutions were prepared freshly from stock before use. The study was terminated on day 273.
Animals were controlled daily for clinical symptoms and detection of adverse effects. Termination criteria for animals were visible sickness: scruffy fur, arched back, heavy breathing, impaired locomotion, HLP (hind leg paralysis). Mice were sacrificed according to the termination criteria.
Survival data were statistically analyzed by pairwise Wilcoxon and pairwise log-rank test.
The diffuse large B-cell lymphoma cell line WSU-DLCL2 was intravenously inoculated (5×10^6 cells) into the tail vein of the human CD16 transgenic Scid mice. Mice were randomized for equal CD16 expression of NK cells and treatment started at day 12 after cell transplantation. […] Animals in the control group received PBS. All animals were controlled daily for clinical symptoms and detection of adverse effects and sacrificed according to the set termination criteria. Study termination was on study day 273. Survival data were represented with the survival curve (FIG. 1) and were statistically analyzed by Pairwise Wilcoxon and Pairwise Log-Rank test (FIG. 2).

GA101: afucosylated glycoengineered humanized B-Ly1 type II anti-CD20 IgG1 antibody
Survival difference between GA101 and rituximab single agents (Pairwise Wilcoxon test): no significant difference | Survival difference from the vehicle group (Pairwise Wilcoxon test): significantly different from the vehicle group except of GA101 | Median Survival (WSU-DLCL2 i.v. in SCID CD16 tg mice, GA101/rituximab 30 mg/kg i.v. days 12, 19, 26, CD22-ADC 4 mg/kg i.v. once day 12, study end day 273): 86.5 days | Animals tumor free at the end of the study (day 273, 10 animals per group): 1 animals | Overall Survival at end of experiment (day 273) (surviving animals/10 per group, same dosing as the median survival study): 1/10
